According to ChEMBL document CHEMBL3046068, “Design, synthesis, and biological activity of certain quinazolinedione derivatives as potent phosphodiestrase4 inhibitors” (Med Chem Res, 2012):

Molecular target: 3',5'-cyclic-AMP phosphodiesterase 4B (Homo sapiens) (UniProt Q07343)
Assay: Inhibition of PDE4B (unknown origin) using FAM-cAMP as substrate at 10 uM after 60 min by fluorescence polarization assay

3',5'-cyclic-AMP phosphodiesterase 4B (Homo sapiens), sequence (Q07343 whole entry): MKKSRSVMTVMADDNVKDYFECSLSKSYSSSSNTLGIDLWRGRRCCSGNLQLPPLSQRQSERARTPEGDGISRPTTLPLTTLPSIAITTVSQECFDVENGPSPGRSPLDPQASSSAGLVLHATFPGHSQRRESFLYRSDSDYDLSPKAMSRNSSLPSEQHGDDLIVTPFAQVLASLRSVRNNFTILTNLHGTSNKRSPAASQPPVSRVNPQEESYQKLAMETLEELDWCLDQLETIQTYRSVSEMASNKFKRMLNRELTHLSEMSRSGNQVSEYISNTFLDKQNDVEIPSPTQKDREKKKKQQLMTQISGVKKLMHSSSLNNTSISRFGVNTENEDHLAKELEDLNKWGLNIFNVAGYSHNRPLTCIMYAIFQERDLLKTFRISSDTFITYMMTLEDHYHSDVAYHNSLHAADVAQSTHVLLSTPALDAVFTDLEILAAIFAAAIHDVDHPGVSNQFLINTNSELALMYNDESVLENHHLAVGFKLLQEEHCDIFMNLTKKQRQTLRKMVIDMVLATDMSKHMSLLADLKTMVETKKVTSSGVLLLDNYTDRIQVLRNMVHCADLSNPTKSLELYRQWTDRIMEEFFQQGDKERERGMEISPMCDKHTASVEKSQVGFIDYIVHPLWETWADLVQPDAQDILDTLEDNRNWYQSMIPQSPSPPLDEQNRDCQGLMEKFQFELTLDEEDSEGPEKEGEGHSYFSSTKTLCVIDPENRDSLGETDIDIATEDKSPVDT

Row | Compound | inhibition [%]
1 | CCCCn1c(=O)c2ccccc2n(CCN2CCCCC2)c1=O | 11
2 | CCCCn1c(=O)c2ccccc2n(CCN(CC)CC)c1=O | 8
3 | CCCCn1c(=O)c2ccccc2n(CCCN2CCOCC2)c1=O | 100
4 | CCCCn1c(=O)c2ccccc2n(Cc2ccccc2)c1=O | 56
5 | CCCCn1c(=O)c2ccccc2n(CCCN(CC)CC)c1=O | 9
6 | CCCCn1c(=O)c2ccccc2n(CCN2CCN(c3ccccc3)CC2)c1=O | 25
7 | CCCCn1c(=O)c2ccccc2n(CC(=O)c2ccccc2)c1=O | 22
8 | CCCCn1c(=O)c2ccccc2n(CC(=O)c2ccc(Cl)cc2)c1=O | 8
9 | CCCCn1c(=O)c2ccccc2n(CCN2CCOCC2)c1=O | 17
10 | CCCCn1c(=O)c2ccccc2n(CCCN2CCN(c3ccccc3)CC2)c1=O | 13
11 | CCCCn1c(=O)c2ccccc2n(CCCN2CCCCC2)c1=O | 11
